The source made the active and inactive calls. Unless noted, the rule behind the calls is not given here. Where only a bound is given, the exact number is not on record here.

Assay [1] concerns the target Melanin-concentrating hormone receptor 1 (Homo sapiens, UniProt Q99705). As to the kind of experiment: Late-stage fluorescence-based counterscreen for antagonists of the G-protein coupled receptor 7 (GPR7): cell-based dose response assay to identify antagonists of the melanin-concentrating hormone receptor 1 (MCHR1) Set 5. The format is functional.
Assay [2] deals with Streptococcus sp. 'group A'. In words: Streptococcus pyogenes SK(-)GAS viability under kanamycin – luminescence, BacTiterGlo, confirmation, counter-screen for streptokinase expression inhibitor project, dose response (AID 1900). It counts as functional, organism-based.
A further assay addresses T1, Streptokinase A (Streptococcus pyogenes serotype M1, UniProt P10520).
T1 sequence (P10520 whole entry): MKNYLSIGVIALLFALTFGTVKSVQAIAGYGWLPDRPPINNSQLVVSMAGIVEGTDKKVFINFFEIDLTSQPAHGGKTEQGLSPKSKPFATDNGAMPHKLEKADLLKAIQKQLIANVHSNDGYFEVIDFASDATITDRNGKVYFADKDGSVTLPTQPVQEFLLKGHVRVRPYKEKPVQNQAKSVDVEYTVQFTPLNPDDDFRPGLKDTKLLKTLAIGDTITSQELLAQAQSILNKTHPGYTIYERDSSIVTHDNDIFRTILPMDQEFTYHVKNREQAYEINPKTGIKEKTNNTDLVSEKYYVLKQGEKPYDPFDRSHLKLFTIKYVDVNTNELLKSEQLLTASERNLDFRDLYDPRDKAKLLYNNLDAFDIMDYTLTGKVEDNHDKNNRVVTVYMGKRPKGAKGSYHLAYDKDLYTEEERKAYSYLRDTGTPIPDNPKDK
In words: viability-normalized secreted streptokinase activity reduction – plasminogen activation absorbance, OD405, dose response (AID 1914).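 Also: secreted streptokinase activity via plasminogen activation per viability signal from cell pellet.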 It counts as functional, Streptococcus pyogenes M1 GAS.

In a further assay the target is Large T antigen (Simian virus 40, UniProt P03070). The format is functional, Betapolyomavirus macacae.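 Also: Confirmatory-stage PubChem screen for compounds that inhibit SV40 T antigen.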
For another assay, the system named is Streptococcus. As to the kind of experiment: GAS UMAA2166 growth inhibition – luminescence, BacTiterGlo, counter-screen for streptokinase expression inhibitor project, dose response (AID 1915).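 Also: potency for reduction of bacterial viability or growth.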 It counts as functional, organism-based.
A further assay has as its system CHO. As to the kind of experiment: CHO cell viability loss, potency – luminescence, cytotoxicity control for TLR9-MyD88 binding inhibitor project, dose response (AID 588339).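 Also: CHO cells stably coexpressing TLR9 and MyD88 fusions from primary screen; compound exposure lasted 48 hours before viability readout.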 The format is functional, cell-based, hamster. The following applies: Cricetulus griseus.
The target in assay [3] is T2, Insulin-degrading enzyme (Homo sapiens, UniProt P14735).
T2 sequence (P14735 whole entry): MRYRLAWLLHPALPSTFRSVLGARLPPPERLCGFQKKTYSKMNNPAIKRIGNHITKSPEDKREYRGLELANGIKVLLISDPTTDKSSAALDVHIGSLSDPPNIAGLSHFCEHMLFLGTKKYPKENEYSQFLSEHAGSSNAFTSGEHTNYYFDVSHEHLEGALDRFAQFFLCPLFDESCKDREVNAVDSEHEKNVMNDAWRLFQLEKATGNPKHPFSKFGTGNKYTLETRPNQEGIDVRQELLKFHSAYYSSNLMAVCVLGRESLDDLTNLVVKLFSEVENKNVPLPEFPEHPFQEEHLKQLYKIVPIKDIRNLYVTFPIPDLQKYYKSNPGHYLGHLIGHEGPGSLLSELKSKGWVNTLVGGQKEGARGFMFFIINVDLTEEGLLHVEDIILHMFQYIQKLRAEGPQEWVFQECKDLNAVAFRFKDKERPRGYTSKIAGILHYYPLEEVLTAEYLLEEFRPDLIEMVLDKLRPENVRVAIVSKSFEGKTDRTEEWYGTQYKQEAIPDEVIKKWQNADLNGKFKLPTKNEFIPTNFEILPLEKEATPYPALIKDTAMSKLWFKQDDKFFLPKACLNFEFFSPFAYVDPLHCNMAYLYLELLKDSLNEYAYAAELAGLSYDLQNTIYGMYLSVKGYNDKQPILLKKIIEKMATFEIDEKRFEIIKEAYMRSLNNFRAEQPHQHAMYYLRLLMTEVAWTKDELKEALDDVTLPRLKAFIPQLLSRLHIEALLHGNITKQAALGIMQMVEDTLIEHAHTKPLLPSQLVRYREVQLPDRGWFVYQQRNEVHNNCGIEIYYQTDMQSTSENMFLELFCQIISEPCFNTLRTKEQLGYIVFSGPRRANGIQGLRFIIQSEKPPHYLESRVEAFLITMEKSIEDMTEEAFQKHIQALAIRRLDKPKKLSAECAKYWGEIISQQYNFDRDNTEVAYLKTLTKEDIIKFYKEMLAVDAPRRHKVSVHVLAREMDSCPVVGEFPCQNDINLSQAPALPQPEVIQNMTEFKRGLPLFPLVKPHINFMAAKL
As to the kind of experiment: recombinant IDE activation, cell-free – biochemical, fluorescence polarization, counter-screen for IDE activator project, dose response (AID 588681).

Assay [4] addresses T2, Insulin-degrading enzyme. As to the kind of experiment: cellular IDE activation of Abeta substrate cleavage – fluorescence polarization, HEK cells, dose response (AID 588439). The format is functional, cell-based.
Assay [5] has as its system HEK293. In words: membrane integrity loss in HEK cells – cell-based, fluorescence, cytotoxicity control for IDE activator project, dose response (AID 588440).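 Also: cytotoxicity by LDH release measuring loss of membrane integrity.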 It counts as functional. The following applies: Homo sapiens.
Assay [6] has as its system HEK293. As to the kind of experiment: optical interference in Abeta FP readout, dose response, artefact control for IDE activator project, biochemical, fluorescence polarization (AID 588442). The format is functional, cell-based. The following applies: Homo sapiens.
Assay [7] addresses 26S proteasome non-ATPase regulatory subunit 14 (Homo sapiens, UniProt O00487). As to the kind of experiment: inhibition of proteasome subunit RPN11 – biochemical, fluorescence polarization, uHTS hits, confirmation (AID 602368). The format is functional.
The target of assay [8] is 72 kDa type IV collagenase (Homo sapiens, UniProt P08253). In words: Dose Response validation of uHTS RPN11 inhibitor hits using a MMP-2 Fluorescence assay. The format is functional.
The target of a further assay is Prothrombin (Bos taurus, UniProt P00735). In words: thrombin protease inhibitors – biochemical, fluorescence polarization, uHTS hits, dose response (AID 602369). The format is functional.
The test system of another assay is Erythrocyte. In words: FACS-based assay to assess parasite growth inhibition 96 hr Measured in Cell-Based System Using Flow Cytometry - 2126-05_Inhibitor_Dose_DryPowder_Activity. [Related pubchem assays (depositor defined):AID488774]. The format is functional. The following applies: Homo sapiens.
Assay [9] can be described thus: FACS-based assay to assess parasite growth inhibition 48 hr Measured in Cell-Based System Using Flow Cytometry - 2126-03_Inhibitor_Dose_DryPowder_Activity. [Related pubchem assays (depositor defined):AID488774]. The format is functional. The following applies: Homo sapiens.
Assay [10] in a line: A cell-based HTS for delayed death inhibitors of the malarial parasite plastid Measured in Microorganism System Using Plate Reader - 2126-02_Inhibitor_Dose_DryPowder_Activity. The format is functional, organism-based.
Assay [11] can be described thus: A cell-based HTS for delayed death inhibitors of the malarial parasite plastid Measured in Microorganism System Using Plate Reader - 2126-01_Inhibitor_Dose_DryPowder_Activity. The format is functional, organism-based.

Sequence of Large T antigen (P03070 whole entry): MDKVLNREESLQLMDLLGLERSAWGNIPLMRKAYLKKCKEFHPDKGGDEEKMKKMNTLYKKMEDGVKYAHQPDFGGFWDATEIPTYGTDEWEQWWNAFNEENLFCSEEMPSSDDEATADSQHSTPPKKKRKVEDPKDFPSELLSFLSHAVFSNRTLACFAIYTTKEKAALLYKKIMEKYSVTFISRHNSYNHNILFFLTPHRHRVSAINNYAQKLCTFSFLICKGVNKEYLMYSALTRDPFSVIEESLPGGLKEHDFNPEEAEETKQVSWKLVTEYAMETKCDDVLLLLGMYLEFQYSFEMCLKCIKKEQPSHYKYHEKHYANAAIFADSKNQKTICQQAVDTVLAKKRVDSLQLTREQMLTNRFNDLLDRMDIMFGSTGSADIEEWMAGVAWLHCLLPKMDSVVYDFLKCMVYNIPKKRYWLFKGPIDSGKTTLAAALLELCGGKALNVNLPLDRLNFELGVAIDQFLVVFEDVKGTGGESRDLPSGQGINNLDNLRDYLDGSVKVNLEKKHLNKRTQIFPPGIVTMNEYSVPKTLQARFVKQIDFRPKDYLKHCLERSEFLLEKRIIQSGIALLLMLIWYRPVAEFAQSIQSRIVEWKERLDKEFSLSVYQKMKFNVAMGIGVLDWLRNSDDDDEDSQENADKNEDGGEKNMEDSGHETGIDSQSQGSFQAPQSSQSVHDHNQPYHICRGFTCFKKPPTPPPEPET
Sequence of 26S proteasome non-ATPase regulatory subunit 14 (O00487 whole entry): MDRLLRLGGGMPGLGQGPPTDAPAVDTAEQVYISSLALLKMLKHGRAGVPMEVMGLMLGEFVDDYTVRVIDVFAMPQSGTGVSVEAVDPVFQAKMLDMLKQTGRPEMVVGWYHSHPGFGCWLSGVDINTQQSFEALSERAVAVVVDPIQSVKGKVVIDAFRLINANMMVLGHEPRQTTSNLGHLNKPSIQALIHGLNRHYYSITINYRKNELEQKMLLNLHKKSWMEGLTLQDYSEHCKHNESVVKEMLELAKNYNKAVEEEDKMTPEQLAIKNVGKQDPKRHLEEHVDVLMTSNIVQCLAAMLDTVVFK
Sequence of Melanin-concentrating hormone receptor 1 (Q99705 whole entry): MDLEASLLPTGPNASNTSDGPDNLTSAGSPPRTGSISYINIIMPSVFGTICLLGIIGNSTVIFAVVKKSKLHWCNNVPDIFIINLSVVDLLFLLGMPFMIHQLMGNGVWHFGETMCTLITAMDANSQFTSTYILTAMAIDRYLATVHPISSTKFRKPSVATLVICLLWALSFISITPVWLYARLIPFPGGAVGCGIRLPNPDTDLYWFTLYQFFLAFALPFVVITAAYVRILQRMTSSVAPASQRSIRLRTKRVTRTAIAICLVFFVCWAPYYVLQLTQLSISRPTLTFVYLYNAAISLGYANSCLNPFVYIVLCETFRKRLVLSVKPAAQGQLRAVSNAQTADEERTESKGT
Sequence of 72 kDa type IV collagenase (P08253 whole entry): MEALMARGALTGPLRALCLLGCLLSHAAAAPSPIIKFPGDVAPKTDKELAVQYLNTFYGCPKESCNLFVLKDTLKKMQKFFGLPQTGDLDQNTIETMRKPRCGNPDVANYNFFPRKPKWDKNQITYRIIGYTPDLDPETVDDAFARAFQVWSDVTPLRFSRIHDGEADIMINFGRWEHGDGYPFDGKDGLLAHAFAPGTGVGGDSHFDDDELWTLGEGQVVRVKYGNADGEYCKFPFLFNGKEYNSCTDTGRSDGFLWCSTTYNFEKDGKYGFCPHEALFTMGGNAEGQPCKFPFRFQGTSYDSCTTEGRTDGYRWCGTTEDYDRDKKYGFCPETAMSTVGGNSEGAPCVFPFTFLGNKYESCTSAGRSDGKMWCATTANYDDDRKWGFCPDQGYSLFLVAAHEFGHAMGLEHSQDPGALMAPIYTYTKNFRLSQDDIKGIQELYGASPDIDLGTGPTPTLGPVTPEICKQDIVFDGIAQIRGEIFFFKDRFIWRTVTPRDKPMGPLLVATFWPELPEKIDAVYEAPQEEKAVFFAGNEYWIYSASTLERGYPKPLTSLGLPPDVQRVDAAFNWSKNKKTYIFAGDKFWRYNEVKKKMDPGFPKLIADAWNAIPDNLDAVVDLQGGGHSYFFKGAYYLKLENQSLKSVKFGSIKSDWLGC

With `CCc1cccc(Oc2c(Cl)cnn(Cc3cccc4ccccc34)c2=O)c1`, the IC50 in assay [1] was > 20 µM (inactive).
Take `C#CCOCCOCCOCCNc1nc(N2CCN(C(=O)CCCCCCCCCCNC(=O)[C@H](CCCCN)n3cc(C[C@@H](C)CC)nn3)CC2)nc(N2CCN(C(=O)CCCCCCCCCCNC(=O)[C@H](CCCCN)n3cc(C[C@@H](C)CC)nn3)CC2)n1`: the EC50 in [2] was 2.86 µM (active); at Streptokinase A, 13.9 µM (active); in the assay on Streptococcus it was > 150 µM (not active); on Insulin-degrading enzyme [3], 9.71 µM (active); on Insulin-degrading enzyme [4], > 2.03 µM (active); with HEK293 [6], > 54.7 µM (inactive). Besides, the IC50 was 36.5 µM (active) on Large T antigen; 5.63 µM (active) with CHO; 4.19 µM (active) in the assay with HEK293 [5]; 16.2 µM (active) in [7]; > 100 µM (inactive) in [8]; 24.5 µM (active) on Prothrombin.
Take `COCCOC(=O)N(C)C[C@@H]1OCCCC[C@H](C)Oc2ccc(NC(=O)Nc3ccccc3)cc2C(=O)N([C@@H](C)CO)C[C@H]1C`: the AC50 in the assay with Erythrocyte was 13.4 µM (active); in [9], 10.9 µM (active); in assay [10] it was > 5 µM (inactive); in assay [11], > 5 µM (inactive).

The record behind these values is ChEMBL document CHEMBL1201862, “PubChem BioAssay data set” (2004).
